{"source": "ChEMBL document CHEMBL5543155", "about": "“Design, Synthesis, and Biological Evaluation of β-Trifluoroethoxydimethyl Selenides as Potent Antiosteoporosis Agents” (J Med Chem, 2024)", "key": {"[1]": {"molecular_target": "T1, NF-kappa-B inhibitor alpha (Mus musculus) (UniProt Q9Z1E3)", "T1 sequence (whole entry)": "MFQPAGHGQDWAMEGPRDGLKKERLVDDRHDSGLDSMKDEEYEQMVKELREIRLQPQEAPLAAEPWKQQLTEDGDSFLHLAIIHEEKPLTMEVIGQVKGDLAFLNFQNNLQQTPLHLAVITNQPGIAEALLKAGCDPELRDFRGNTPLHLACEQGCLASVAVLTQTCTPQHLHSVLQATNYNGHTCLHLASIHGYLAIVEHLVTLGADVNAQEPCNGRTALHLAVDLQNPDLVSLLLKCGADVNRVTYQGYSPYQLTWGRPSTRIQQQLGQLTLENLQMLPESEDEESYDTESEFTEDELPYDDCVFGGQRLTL", "test": "Inhibition of RANKL-induced IkappaBalpha phosphorylation in C57BL/6 mouse BMMC cells at 5 uM pretreated for 6 hrs followed by RANKL stimulation and measured upto 60 mins by Western blot analysis", "format": "cell-based", "settings": "time <= 7.0 hrs"}, "Mus musculus [2]": {"system": "Mus musculus", "test": "Anti-osteoporosis activity in ovariectomized C57BL/6 mouse assessed as reduction in bone loss by measuring decrease in TRAP-positive cells around trabecula at 10 mg/kg, ip administered every other day for 8 weeks by TRAP staining based analysis", "format": "functional, organism-based"}, "MC3T3-E1 [3]": {"system": "MC3T3-E1", "test": "Induction of osteoblast differentiation in mouse MC3T3-E1 cells assessed as increase in ALP activity measured after 7 days by ALP staining based inverted microscopic analysis", "format": "functional, cell-based", "settings": "dose 2.5-10 µM, time 7.0 day"}, "[4]": {"molecular_target": "T2, Tumor necrosis factor ligand superfamily member 11 (Mus musculus, UniProt O35235)", "T2 sequence (O35235 whole entry)": "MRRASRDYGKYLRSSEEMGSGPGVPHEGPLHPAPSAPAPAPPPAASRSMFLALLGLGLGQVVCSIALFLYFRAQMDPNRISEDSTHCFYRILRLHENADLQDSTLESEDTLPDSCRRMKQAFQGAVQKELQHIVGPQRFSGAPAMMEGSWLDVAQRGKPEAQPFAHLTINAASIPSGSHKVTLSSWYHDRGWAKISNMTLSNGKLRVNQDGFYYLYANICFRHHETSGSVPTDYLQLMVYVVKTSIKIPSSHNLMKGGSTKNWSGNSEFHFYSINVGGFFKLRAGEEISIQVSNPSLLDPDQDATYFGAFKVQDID", "test": "Binding affinity to mouse RANKL assessed as dissociation constant by SPR analysis"}, "BMMC [5]": {"system": "BMMC", "test": "Anti-osteoclastogenesis activity in M-CSF/RANKL-induced C57BL/6 mouse BMMC cells assessed as reduction in number of TRAP-positive osteoclasts at 0 to 10 uM incubated for 6 days with media replacement for every 2 days by TRAP-staining based light microscopic analysis", "format": "functional, cell-based", "settings": "dose 0-10 µM, time 6.0 day"}, "[6]": {"molecular_target": "c-Jun N-terminal kinase (Mus musculus) (UniProt Q91Y86+Q9WTU6+Q61831)", "sequence (Q61831 whole entry, looked up)": "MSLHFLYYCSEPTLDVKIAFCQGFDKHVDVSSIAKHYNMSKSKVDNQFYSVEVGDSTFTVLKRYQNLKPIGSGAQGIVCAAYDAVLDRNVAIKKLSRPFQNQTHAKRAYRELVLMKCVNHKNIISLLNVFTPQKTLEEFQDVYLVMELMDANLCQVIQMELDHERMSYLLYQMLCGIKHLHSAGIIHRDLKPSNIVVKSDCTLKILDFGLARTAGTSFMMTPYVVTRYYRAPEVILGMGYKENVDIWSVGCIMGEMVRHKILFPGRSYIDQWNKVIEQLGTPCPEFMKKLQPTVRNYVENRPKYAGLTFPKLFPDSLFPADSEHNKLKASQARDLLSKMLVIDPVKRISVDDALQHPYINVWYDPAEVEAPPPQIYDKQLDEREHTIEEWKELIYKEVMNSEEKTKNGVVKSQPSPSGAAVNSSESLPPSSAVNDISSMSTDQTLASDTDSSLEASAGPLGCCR", "sequence (Q91Y86 whole entry, looked up)": "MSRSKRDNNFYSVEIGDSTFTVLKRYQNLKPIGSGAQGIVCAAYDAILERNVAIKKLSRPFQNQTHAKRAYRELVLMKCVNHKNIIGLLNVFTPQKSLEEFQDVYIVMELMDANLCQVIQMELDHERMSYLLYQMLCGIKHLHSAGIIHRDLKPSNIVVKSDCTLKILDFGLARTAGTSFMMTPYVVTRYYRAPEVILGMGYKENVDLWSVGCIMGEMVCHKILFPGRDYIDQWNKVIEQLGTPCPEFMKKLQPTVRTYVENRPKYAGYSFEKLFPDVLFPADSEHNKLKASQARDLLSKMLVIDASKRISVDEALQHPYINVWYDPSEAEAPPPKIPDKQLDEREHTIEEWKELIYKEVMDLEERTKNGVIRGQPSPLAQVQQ", "sequence (Q9WTU6 whole entry, looked up)": "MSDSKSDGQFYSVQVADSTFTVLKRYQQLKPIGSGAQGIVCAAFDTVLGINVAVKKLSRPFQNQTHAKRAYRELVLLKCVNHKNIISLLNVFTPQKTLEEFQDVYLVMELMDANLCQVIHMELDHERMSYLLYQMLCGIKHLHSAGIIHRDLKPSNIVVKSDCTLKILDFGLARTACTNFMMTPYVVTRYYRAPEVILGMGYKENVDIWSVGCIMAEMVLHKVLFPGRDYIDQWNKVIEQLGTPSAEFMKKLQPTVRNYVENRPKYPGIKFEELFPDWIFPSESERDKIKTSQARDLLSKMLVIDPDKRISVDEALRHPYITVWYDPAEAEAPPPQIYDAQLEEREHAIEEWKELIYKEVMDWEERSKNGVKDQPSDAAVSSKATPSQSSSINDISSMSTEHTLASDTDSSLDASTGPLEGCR", "test": "Inhibition of JNK phosphorylation in RANKL-induced C57BL/6 mouse BMMC cells at 5 uM pretreated for 6 hrs followed by RANKL stimulation and measured upto 60 mins by Western blot analysis", "format": "cell-based", "settings": "time <= 7.0 hrs"}, "Mus musculus [7]": {"system": "Mus musculus", "test": "Anti-osteoporosis activity in ovariectomized C57BL/6 mouse assessed as reduction in bone loss by measuring decrease in trabecular spacing at 10 mg/kg, ip administered every other day for 8 weeks by micro-CT analysis", "format": "functional, organism-based"}, "BMMC [8]": {"system": "BMMC", "test": "Effect on total p65 protein expression in RANKL-induced C57BL/6 mouse BMMC cells at 5 uM pretreated for 6 hrs followed by RANKL stimulation and measured upto 60 mins by Western blot analysis", "format": "functional, cell-based", "settings": "time <= 7.0 hrs"}, "Mus musculus [9]": {"system": "Mus musculus", "test": "Anti-osteoporosis activity in ovariectomized C57BL/6 mouse assessed as reduction in bone loss by measuring increase in trabecular number at 10 mg/kg, ip administered every other day for 8 weeks by micro-CT analysis", "format": "functional, organism-based"}, "RAW264.7 [10]": {"system": "RAW264.7", "test": "Inhibition of RANKL-induced osteoclast differentiation in mouse RAW264.7 cells at 5 uM incubated for 4 days with media replacement for every 2 days by TRAP-staining based light microscopic analysis", "format": "functional, cell-based", "settings": "time 4.0 day"}, "[11]": {"test": "Toxicity in OVX osteoporotic C57BL/6 mouse assessed as body weight loss at 10 mg/kg, ip administered every other day for 8 weeks and measured every week", "format": "organism-based", "settings": "in vivo, 1344 h"}, "MC3T3-E1 [12]": {"system": "MC3T3-E1", "test": "Induction of osteoblast differentiation in mouse MC3T3-E1 cells assessed as bone formation by measuring increase in Smad protein expression measured after 7 days by Western blot analysis", "format": "functional, cell-based", "settings": "dose 2.5-10 µM, time 7.0 day"}, "RAW264.7 [13]": {"system": "RAW264.7", "test": "Cytotoxicity against mouse RAW264.7 cells assessed as cell destruction at 5 uM incubated for 48 hrs by MTT assay", "format": "toxicity, cell-based", "settings": "raw264.7, 48 h"}, "BMMC [14]": {"system": "BMMC", "test": "Anti-osteoclastogenesis activity in M-CSF/RANKL-induced C57BL/6 mouse BMMC cells assessed as downregulation of TRAP gene expression incubated for 5 days by qRT-PCR analysis", "format": "functional, cell-based", "settings": "dose 0-10 µM, time 5.0 day"}, "[15]": {"molecular_target": "T1, NF-kappa-B inhibitor alpha (Mus musculus)", "test": "Inhibition of RANKL-induced IkappaBalpha degradation in C57BL/6 mouse BMMC cells at 5 uM pretreated for 6 hrs followed by RANKL stimulation and measured upto 60 mins by Western blot analysis", "format": "cell-based", "settings": "time <= 7.0 hrs"}, "Mus musculus [16]": {"system": "Mus musculus", "test": "Anti-osteoporosis activity in ovariectomized C57BL/6 mouse assessed as reduction in bone loss by measuring increase in bone volume/total bone volume (BV/TV) at 10 mg/kg, ip administered every other day for 8 weeks by micro-CT analysis", "format": "functional, organism-based"}, "[17]": {"test": "Toxicity in OVX osteoporotic C57BL/6 mouse assessed as effect on size and surface gloss of liver at 10 mg/kg, ip administered every other day for 8 weeks by H and E staining based analysis", "format": "organism-based", "settings": "in vivo, 1344 h"}, "BMMC [18]": {"system": "BMMC", "test": "Anti-osteoclastogenesis activity in M-CSF/RANKL-induced C57BL/6 mouse BMMC cells assessed as reduction in size of TRAP-positive osteoclasts at 0 to 10 uM incubated for 6 days with media replacement for every 2 days by TRAP-staining based light microscopic analysis", "format": "functional, cell-based", "settings": "dose 0-10 µM, time 6.0 day"}, "[19]": {"molecular_target": "MAP kinase p38 (Mus musculus) (UniProt P47811+O08911+Q9WUI1+Q9Z1B7)", "test": "Inhibition of p38 phosphorylation in RANKL-induced C57BL/6 mouse BMMC cells at 5 uM pretreated for 6 hrs followed by RANKL stimulation and measured upto 60 mins by Western blot analysis", "format": "cell-based", "settings": "time <= 7.0 hrs"}, "BMMC [20]": {"system": "BMMC", "test": "Cytotoxicity against C57BL/6 mouse BMMC cells assessed as reduction in cell viability at 30 uM incubated for 48 hrs by MTT assay", "format": "toxicity, cell-based"}, "MC3T3-E1 [21]": {"system": "MC3T3-E1", "test": "Cytotoxicity against mouse MC3T3-e1 cells assessed as reduction in cell viability at 2.5 to 10 uM measured after 7 days by MTT assay", "format": "toxicity, cell-based", "settings": "mc3t3-e1, 168 h, dose 2.5-10 µM, time 7 day"}, "[22]": {"test": "Toxicity in OVX osteoporotic C57BL/6 mouse assessed as effect on size and surface gloss of lung at 10 mg/kg, ip administered every other day for 8 weeks by H and E staining based analysis", "format": "organism-based", "settings": "in vivo, 1344 h"}, "MC3T3-E1 [23]": {"system": "MC3T3-E1", "test": "Induction of osteoblast differentiation in mouse MC3T3-E1 cells assessed as bone formation by measuring increase in Runx2 protein expression measured after 7 days by Western blot analysis", "format": "functional, cell-based", "settings": "dose 2.5-10 µM, time 7.0 day"}, "[24]": {"molecular_target": "T3, Tumor necrosis factor ligand superfamily member 11 (Mus musculus) (UniProt O35235)", "T3 sequence (whole entry)": "T2 sequence (O35235 whole entry)", "test": "Binding affinity to mouse RANKL assessed as increase in resonance units measured upto 240 mins by SPR analysis", "settings": "dose 15.63-500 µM"}}, "note": "The source made the active and inactive calls. The calls are words filed in the database; no cut-off is given here."}
{"smiles": "CC(C)(OCC(F)(F)F)C([Se]c1ccccc1)C(=O)Nc1ccncc1", "note": "(centres undefined)", "values": [{"measurement": "inhibition", "setting": "[1]", "value": "Active"}, {"measurement": "Activity", "setting": "Mus musculus [2]", "value": "Active"}, {"measurement": "Activity", "setting": "MC3T3-E1 [3]", "value": "Dose-Dependent Effect"}, {"measurement": "Kd", "setting": "[4]", "value": 268, "unit": "µM"}, {"measurement": "Activity", "setting": "BMMC [5]", "value": "Active"}, {"measurement": "inhibition", "setting": "[6]", "value": "Active"}, {"measurement": "Activity", "setting": "Mus musculus [7]", "value": "Active"}, {"measurement": "Activity", "setting": "BMMC [8]", "value": "inactive"}, {"measurement": "Activity", "setting": "Mus musculus [9]", "value": "Active"}, {"measurement": "inhibition", "setting": "RAW264.7 [10]", "value": "Active"}, {"measurement": "Activity", "setting": "[11]", "value": "Non-Toxic"}, {"measurement": "Activity", "setting": "MC3T3-E1 [12]", "value": "Dose-Dependent Effect"}, {"measurement": "Activity", "setting": "RAW264.7 [13]", "value": "Non-Toxic"}, {"measurement": "Activity", "setting": "BMMC [14]", "value": "Dose-Dependent Effect"}, {"measurement": "inhibition", "setting": "[15]", "value": "Active"}, {"measurement": "Activity", "setting": "Mus musculus [16]", "value": "Active"}, {"measurement": "Activity", "setting": "[17]", "value": "Non-Toxic"}, {"measurement": "Activity", "setting": "BMMC [18]", "value": "Active"}, {"measurement": "inhibition", "setting": "[19]", "value": "Active"}, {"measurement": "Activity", "setting": "BMMC [20]", "value": "Non-Toxic"}, {"measurement": "Activity", "setting": "MC3T3-E1 [21]", "value": "Non-Toxic"}, {"measurement": "Activity", "setting": "[22]", "value": "Non-Toxic"}, {"measurement": "Activity", "setting": "MC3T3-E1 [23]", "value": "Dose-Dependent Effect"}, {"measurement": "Activity", "setting": "[24]", "value": "Active"}]}
